Test results: BigSolDB 2.1

O=C1CCCCCCCCCCC1
solubility (mole fraction)
Conditions	278.15 K	283.15 K	288.15 K	293.15 K	298.15 K	303.15 K	308.15 K	313.15 K
in 1,2-dichloroethane	0.366	0.394	0.441	0.459	0.511	0.549	0.604	0.657
in acetone	0.142	0.184	0.229	0.285	0.362	0.432	0.517	0.618
in acetonitrile	0.0485	0.0711	0.104	0.16	0.225	0.322	0.466	0.637
in cyclohexane	–	0.21	0.263	0.308	0.366	0.441	0.515	0.598
in ethanol	0.0472	0.0701	0.0949	0.127	0.183	0.243	0.348	0.461
in ethyl acetate	0.195	0.235	0.286	0.345	0.407	0.477	0.553	0.615
in isobutanol	0.0949	0.121	0.158	0.202	0.261	0.331	0.424	0.54
in isopropanol	0.0967	0.122	0.155	0.2	0.262	0.341	0.445	0.55
in methanol	0.0155	0.0267	0.04	0.0679	0.108	0.166	0.272	0.399
in n-butanol	0.0988	0.125	0.164	0.204	0.258	0.327	0.415	0.527
in n-propanol	0.118	0.144	0.182	0.228	0.293	0.37	0.467	0.567
in toluene	0.33	0.378	0.41	0.454	0.501	0.553	0.607	0.675
